The assay has as its system HL60 promyelocytic leukemia cells. As to the kind of experiment: Cytotoxicity assay in HL60 cells (Annexin V FITC / PI flow cytometry). It counts as cell-based. Particulars: 48 hours, 0-80 μM, % Viability (Annexin V low, PI low). The protocol: We examined the cytotoxicity of peptides BCL-26 and BCL-27 using an assay in HL60 promyelocytic leukemia cells. HL60 PML suspension cells were set at a density of 3.5×10^3 cells/well in 150 μL of RPMI+1.5% fetal bovine serum (FBS) in a 96 well dish. BCL-26 or BCL-27, reconstituted at a concentration of 10 mg/mL in 20 mM His, pH 7.5, was added to each well at a volume of 50 μL to a final concentration range of 0-80 μM. Cells were incubated with peptide for 48 hours at 37° C. Cell viability was quantified by flow cytometry using abcam Annexin V FITC apoptosis detection kit. Briefly, cells were washed with PBS and resuspended in 1× assay buffer containing Annexin V FITC and propidium iodide (PI). Annexin V detects apoptotic cells, and PI stains dead cells. After staining, apoptotic cells show green fluorescence, dead cells show red and green fluorescence, and live cells show little or no fluorescence. Cells were selected for analysis based on forward scatter (FSC) vs. side scatter (SSC), and analyzed by BD Accuri C6 Plus flow cytometer to detect Annexin V-FITC binding (Ex=488 nm; Em=530 nm) using FITC signal detector and PI staining by the phycoerythrnn emission signal detector. Percentage of Annexin V^low and PI^low were quantified and presented as % Viability.
We examined the cytotoxicity of additional retro inverso and mixed chirality BCL9 mimetic peptides in HL60 cells using the assay described above.

Eleven molecules from US12552846B2, “Modified BCL9 mimetic peptides” (Sapience Therapeutics, Inc., priority 2019, dated 2026) can be followed below.

One may read the EC50 as the concentration needed to bring the measured effect to its halfway point. Higher therefore signals a less potent agent.

Square brackets hold non-standard residues; d marks the D form. Peptide text beside a SMILES is read from it.

Consider `CC(C)C[C@@H](NC(=O)[C@@H](Cc1c[nH]c2ccccc12)NC(=O)[C@@H](N)Cc1c[nH]c2ccccc12)C(=O)N[C@H](C)C(=O)N[C@H](CCCNC(=N)N)C(=O)N[C@H](CCC(N)=O)C(=O)N[C@H](CC(C)C)C(=O)N[C@H](CCC(=O)O)C(=O)N[C@H](CCCNC(=N)N)C(=O)N[C@H](CC(C)C)C(=O)N[C@H](CCCNC(=N)N)C(=O)N[C@H](CCCNC(=N)N)C(=O)N[C@H](CC(C)C)C(=O)N[C@H](C)C(=O)N[C@H](CCCCN)C(=O)N[C@H](CC(C)C)C(=O)N[C@@H](C(=O)N1CCC[C@@H]1C(=O)N[C@@H](C(=O)O)C(C)C)[C@H](C)O` [BCL-97] (H-W[dW][dL][dA][dR][dQ][dL][dE][dR][dL][dR][dR][dL][dA][dK][dL][dT][dP][dV]-OH; N-terminus and C-terminus assumed), for which the EC50 was less than 2000 nM.
Molecule `CC(C)C[C@@H](NC(=O)[C@@H](Cc1c[nH]c2ccccc12)NC(=O)[C@@H](N)Cc1c[nH]c2ccccc12)C(=O)N[C@H](C)C(=O)N[C@H](CCCNC(=N)N)C(=O)N[C@H](CCC(N)=O)C(=O)N[C@H](CC(C)C)C(=O)N[C@H](CCC(=O)O)C(=O)N[C@H](CCCNC(=N)N)C(=O)N[C@H](CC(C)C)C(=O)N[C@H](C)C(=O)N[C@H](CCCNC(=N)N)C(=O)N[C@H](CC(C)C)C(=O)N[C@H](C)C(=O)N[C@H](CCCCN)C(=O)N[C@H](CC(C)C)C(=O)N[C@@H](C(=O)N1CCC[C@@H]1C(=O)N[C@@H](C(=O)O)C(C)C)[C@H](C)O` [BCL-98] (H-W[dW][dL][dA][dR][dQ][dL][dE][dR][dL][dA][dR][dL][dA][dK][dL][dT][dP][dV]-OH; N-terminus and C-terminus assumed) came in with an EC50 of 2000 to 10000 nM.
As to `CC(C)C[C@@H](NC(=O)[C@@H](Cc1c[nH]c2ccccc12)NC(=O)[C@@H](N)Cc1ccccc1)C(=O)N[C@H](C)C(=O)N[C@H](CCCNC(=N)N)C(=O)N[C@H](CCC(N)=O)C(=O)N[C@H](CC(C)C)C(=O)N[C@H](C)C(=O)N[C@H](CCCNC(=N)N)C(=O)N[C@H](CC(C)C)C(=O)N[C@H](C)C(=O)N[C@H](CCC(N)=O)C(=O)N[C@H](CC(C)C)C(=O)N[C@H](C)C(=O)N[C@H](CCCCN)C(=O)N[C@H](CC(C)C)C(=O)N[C@@H](C(=O)N1CCC[C@@H]1C(=O)N[C@@H](C(=O)O)C(C)C)[C@H](C)O` [BCL-99] (H-F[dW][dL][dA][dR][dQ][dL][dA][dR][dL][dA][dQ][dL][dA][dK][dL][dT][dP][dV]-OH; N-terminus and C-terminus assumed), the EC50 is 2000 to 10000 nM.
The molecule `CC(C)C[C@@H](NC(=O)[C@@H](Cc1c[nH]c2ccccc12)NC(=O)[C@@H](N)CCCNC(=N)N)C(=O)N[C@H](C)C(=O)N[C@H](CCCNC(=N)N)C(=O)N[C@H](CCC(N)=O)C(=O)N[C@H](CC(C)C)C(=O)N[C@H](C)C(=O)N[C@H](CCCNC(=N)N)C(=O)N[C@H](CC(C)C)C(=O)N[C@H](C)C(=O)N[C@H](CCC(N)=O)C(=O)N[C@H](CC(C)C)C(=O)N[C@H](C)C(=O)N[C@H](CCCCN)C(=O)N[C@H](CC(C)C)C(=O)N[C@@H](C(=O)N1CCC[C@@H]1C(=O)N[C@@H](C(=O)O)C(C)C)[C@H](C)O` [BCL-100] (H-R[dW][dL][dA][dR][dQ][dL][dA][dR][dL][dA][dQ][dL][dA][dK][dL][dT][dP][dV]-OH; N-terminus and C-terminus assumed) gave an EC50 of less than 2000 nM.
The molecule `CC(C)C[C@@H](NC(=O)[C@@H](Cc1c[nH]c2ccccc12)NC(=O)[C@H](Cc1c[nH]c2ccccc12)NC(=O)[C@H](N)Cc1ccccc1)C(=O)N[C@H](C)C(=O)N[C@H](CCCNC(=N)N)C(=O)N[C@H](CCC(N)=O)C(=O)N[C@H](CC(C)C)C(=O)N[C@H](C)C(=O)N[C@H](CCCNC(=N)N)C(=O)N[C@H](CC(C)C)C(=O)N[C@H](C)C(=O)N[C@H](CCC(N)=O)C(=O)N[C@H](CC(C)C)C(=O)N[C@H](C)C(=O)N[C@H](CCCCN)C(=O)N[C@H](CC(C)C)C(=O)N[C@@H](C(=O)N1CCC[C@@H]1C(=O)N[C@@H](C(=O)O)C(C)C)[C@H](C)O` [BCL-101] (H-[dF]W[dW][dL][dA][dR][dQ][dL][dA][dR][dL][dA][dQ][dL][dA][dK][dL][dT][dP][dV]-OH; N-terminus and C-terminus assumed) yielded an EC50 of less than 2000 nM.
As for `CC(C)C[C@@H](NC(=O)[C@@H](CCCNC(=N)N)NC(=O)[C@@H](C)NC(=O)[C@@H](CC(C)C)NC(=O)[C@@H](CCC(N)=O)NC(=O)[C@@H](CCCNC(=N)N)NC(=O)[C@@H](CC(C)C)NC(=O)[C@@H](CC(C)C)NC(=O)[C@@H](Cc1c[nH]c2ccccc12)NC(=O)[C@H](N)Cc1c[nH]c2ccccc12)C(=O)N[C@H](C)C(=O)N[C@H](CCC(N)=O)C(=O)N[C@H](CC(C)C)C(=O)N[C@H](C)C(=O)N[C@H](CCCCN)C(=O)N[C@H](CC(C)C)C(=O)N[C@@H](C(=O)N1CCC[C@@H]1C(=O)N[C@@H](C(=O)O)C(C)C)[C@H](C)O` [BCL-128] (H-[dW][dW][dL][dL][dR][dQ][dL][dA][dR][dL][dA][dQ][dL][dA][dK][dL][dT][dP][dV]-OH; N-terminus and C-terminus assumed), the EC50 is less than 2000 nM.
The molecule `CC(C)C[C@@H](NC(=O)[C@@H](Cc1c[nH]c2ccccc12)NC(=O)[C@H](CCCNC(=N)N)NC(=O)[C@H](N)Cc1ccccc1)C(=O)N[C@H](C)C(=O)N[C@H](CCCNC(=N)N)C(=O)N[C@H](CCC(N)=O)C(=O)N[C@H](CC(C)C)C(=O)N[C@H](C)C(=O)N[C@H](CCCNC(=N)N)C(=O)N[C@H](CC(C)C)C(=O)N[C@H](C)C(=O)N[C@H](CCC(N)=O)C(=O)N[C@H](CC(C)C)C(=O)N[C@H](C)C(=O)N[C@H](CCCCN)C(=O)N[C@H](CC(C)C)C(=O)N[C@@H](C(=O)N1CCC[C@@H]1C(=O)N[C@@H](C(=O)O)C(C)C)[C@H](C)O` [BCL-129] (H-[dF]R[dW][dL][dA][dR][dQ][dL][dA][dR][dL][dA][dQ][dL][dA][dK][dL][dT][dP][dV]-OH; N-terminus and C-terminus assumed) showed an EC50 of less than 2000 nM.
The value for `CC(C)C[C@@H](NC(=O)[C@@H](CCCNC(=N)N)NC(=O)[C@@H](C)NC(=O)[C@@H](CC(C)C)NC(=O)[C@@H](CCC(N)=O)NC(=O)[C@@H](CCCNC(=N)N)NC(=O)[C@H](NC(=O)[C@@H](CC(C)C)NC(=O)[C@@H](Cc1c[nH]c2ccccc12)NC(=O)[C@H](CCCNC(=N)N)NC(=O)[C@H](N)Cc1ccccc1)C(C)C)C(=O)N[C@H](C)C(=O)N[C@H](CCC(N)=O)C(=O)N[C@H](CC(C)C)C(=O)N[C@H](C)C(=O)N[C@H](CCCCN)C(=O)N[C@H](CC(C)C)C(=O)N[C@@H](C(=O)N1CCC[C@@H]1C(=O)N[C@@H](C(=O)O)C(C)C)[C@H](C)O` [BCL-130] (H-[dF]R[dW][dL][dV][dR][dQ][dL][dA][dR][dL][dA][dQ][dL][dA][dK][dL][dT][dP][dV]-OH; N-terminus and C-terminus assumed) was less than 2000 nM; that for `CC(C)C[C@@H](NC(=O)[C@@H](CCCNC(=N)N)NC(=O)[C@@H](C)NC(=O)[C@@H](CC(C)C)NC(=O)[C@@H](CCC(N)=O)NC(=O)[C@@H](CCCNC(=N)N)NC(=O)[C@H](NC(=O)[C@@H](CC(C)C)NC(=O)[C@@H](Cc1c[nH]c2ccccc12)NC(=O)[C@H](Cc1c[nH]c2ccccc12)NC(=O)[C@H](N)Cc1ccccc1)C(C)C)C(=O)N[C@H](C)C(=O)N[C@H](CCC(N)=O)C(=O)N[C@H](CC(C)C)C(=O)N[C@H](C)C(=O)N[C@H](CCCCN)C(=O)N[C@H](CC(C)C)C(=O)N[C@@H](C(=O)N1CCC[C@@H]1C(=O)N[C@@H](C(=O)O)C(C)C)[C@H](C)O` [BCL-131] (H-[dF]W[dW][dL][dV][dR][dQ][dL][dA][dR][dL][dA][dQ][dL][dA][dK][dL][dT][dP][dV]-OH; N-terminus and C-terminus assumed) was less than 2000 nM; that for `CC(C)C[C@@H](NC(=O)[C@@H](C)NC(=O)[C@@H](C)NC(=O)[C@@H](CC(C)C)NC(=O)[C@@H](CCCNC(=N)N)NC(=O)[C@@H](C)NC(=O)[C@@H](CC(C)C)NC(=O)[C@@H](CCC(N)=O)NC(=O)[C@@H](CCCNC(=N)N)NC(=O)[C@@H](C)NC(=O)[C@@H](CC(C)C)NC(=O)[C@@H](Cc1c[nH]c2ccccc12)NC(=O)[C@H](Cc1c[nH]c2ccccc12)NC(=O)[C@H](N)Cc1ccccc1)C(=O)N[C@H](C)C(=O)N[C@H](CCCCN)C(=O)N[C@H](CC(C)C)C(=O)N[C@@H](C(=O)N1CCC[C@@H]1C(=O)N[C@@H](C(=O)O)C(C)C)[C@H](C)O` [BCL-132] (H-[dF]W[dW][dL][dA][dR][dQ][dL][dA][dR][dL][dA][dA][dL][dA][dK][dL][dT][dP][dV]-OH; N-terminus and C-terminus assumed) was less than 2000 nM.
To `CC(C)C[C@@H](NC(=O)[C@@H](C)NC(=O)[C@@H](C)NC(=O)[C@@H](CC(C)C)NC(=O)[C@@H](CCC(N)=O)NC(=O)[C@@H](CCCNC(=N)N)NC(=O)[C@@H](C)NC(=O)[C@@H](CC(C)C)NC(=O)[C@@H](Cc1c[nH]c2ccccc12)NC(=O)[C@H](Cc1c[nH]c2ccccc12)NC(=O)[C@H](N)Cc1ccccc1)C(=O)N[C@H](C)C(=O)N[C@H](CCC(N)=O)C(=O)N[C@H](CC(C)C)C(=O)N[C@H](C)C(=O)N[C@H](CCCCN)C(=O)N[C@H](CC(C)C)C(=O)N[C@@H](C(=O)N1CCC[C@@H]1C(=O)N[C@@H](C(=O)O)C(C)C)[C@H](C)O` [BCL-133] (H-[dF]W[dW][dL][dA][dR][dQ][dL][dA][dA][dL][dA][dQ][dL][dA][dK][dL][dT][dP][dV]-OH; N-terminus and C-terminus assumed) belongs less than 2000 nM.
